According to paper PMC10373420, “A high-throughput screening system for SARS-CoV-2 entry inhibition, syncytia formation and cell toxicity” (Biological Procedures Online, 2023):
Entries after “also recorded” stand apart in the source; their conditions may differ. Where a name gives a salt, the structure may show the parent alone. Read-outs that look alike come from different tables or passages of the source. Numbered stars: 1 amine (or outer) side, 2 acyl side, 3 side chain; on linkers, the order of the positions; unused ones are H or OH. Bridge positions count the residues as written; N and C are the ends. Square brackets hold non-standard residues; d marks the D form. Peptide text beside a SMILES is read from it. I, II: the chains in the order shown. Actinocin(9to1) = Cc1c2oc3c(C)ccc(C(=O)[*:1])c3nc-2c(C(=O)[*:2])c(N)c1=O; NMeV = CN[C@H](C(=O)O)C(C)C; Sar = CNCC(=O)O

How the values were obtained:
[1] = system: VSV-eGFP-SARS-CoV-2; experiment: microbe, parasite or virus in culture; format: cell-based; settings: for inhibition at 1 µM: read-out: inhibition of VSV-eGFP-SARS-CoV-2 infection, 1 μM; for inhibition at 5 µM: read-out: inhibition of VSV-eGFP-SARS-CoV-2 infection, 5 μM; for inhibition at 10 µM: read-out: inhibition of VSV-eGFP-SARS-CoV-2 infection, 10 μM; for IC50: read-out: IC50 against VSV-eGFP-SARS-CoV-2 infection
[2] = system: ACE2-Spike dependent syncytia formation; format: cell-based, human; settings: IC50 concentration; for initiation of pseudoviral infection: control 7 hpi; for initiation of syncytia formation: imaging up to 24 hpi, control 12 hpi
[3] = system: rVSV-G-GFP; format: cell-based, vesicular stomatitis virus (VSV)
[4] = system: VSV-eGFP-SARS-CoV-2; format: cell-based; settings: 1 μM
[5] = system: SiHa ACE2 Cerulean H2B mCherry cells
[6] = Severe acute respiratory syndrome coronavirus 2, SiHa

| Molecule | inhibition at 1 µM [1, 6] [%] | inhibition at 5 µM [1, 6] [%] | inhibition at 10 µM [1, 6] [%] | initiation of pseudoviral infection [2] [hpi] | initiation of syncytia formation [2] | rVSV-G-GFP infection inhibition (in words) [3] | also measured |
| --- | --- | --- | --- | --- | --- | --- | --- |
| COc1ccc(/C=C/C(=O)c2ccccc2)cc1 [4-Methoxychalcone, reference compound] | -11 | -7 | 26 |  |  |  |  |
| CO[C@H]1/C=C\C=C(/C)C(=O)NC2=CC(=O)C(N)=C(C[C@@H](C)C[C@H](OC)[C@H](O)[C@@H](C)/C=C(\C)[C@@H]1OC(N)=O)C2=O [17-Aminodemethoxygeldanamycin] |  |  |  | 8 | 12 hpi | moderate inhibition | IC50 [1]: 560 nM; inhibition of VSV-eGFP-SARS-CoV-2 infection after pre-treatment of cells [4]: 50%; inhibitory activity after preincubation of cells with natural product (in words) [4]: having inhibitory activity; also recorded: moderate level of viral entry inhibition |
| CC(=O)O[C@@]1(C)C[C@@H]([C@H](O)CC2CC(=O)NC(=O)C2)C(=O)[C@@H](C)C1 [Acetoxycycloheximide] |  | 100 | 100 | 10 | 21 hpi | moderate level of inhibition | IC50 [1, 6]: 640 nM |
| CC(=O)O[C@H]1C[C@H](O[C@H]2[C@@H](O)C[C@H](O[C@H]3[C@@H](O)C[C@H](O[C@H]4CC[C@@]5(C)[C@H](CC[C@@H]6[C@@H]5C[C@@H](O)[C@]5(C)[C@@H](C7=CC(=O)OC7)CC[C@]65O)C4)O[C@@H]3C)O[C@@H]2C)O[C@H](C)[C@H]1O[C@@H]1O[C@H](CO)[C@@H](O)[C@H](O)[C@H]1O [Allocor] | 49 | 89 | 92 |  |  |  |  |
| C[C@H](N)C(=O)N[C@@H]1[C@H]2C(=C(O)C[C@@H](O)[C@@H]2O)C(=O)O[C@]1(C)C(Cl)Cl [Bactobolin] | 56 | 99 | 100 |  |  |  |  |
| C[C@H]1CCC/C=C/[C@@H]2C[C@H](O)C[C@H]2[C@H](O)/C=C/C(=O)O1 [Brefeldin A] | 66 | 82 | 86 |  |  |  |  |
| Cc1c2oc3c(C)ccc(C(=O)N[C@@H]4C(=O)N[C@H](C(C)C)C(=O)N5CCC[C@H]5C(=O)N(C)CC(=O)N(C)[C@@H](C(C)C)C(=O)O[C@@H]4C)c3nc-2c(C(=O)N[C@@H]2C(=O)N[C@H](C(C)C)C(=O)N3CCC[C@H]3C(=O)N(C)CC(=O)N(C)[C@@H](C(C)C)C(=O)O[C@@H]2C)c(N)c1=O [Dactinomycin, reference compound] (I: T[dV]P[Sar][NMeV] / II: T[dV]P[Sar][NMeV]; ester I:1-I:C, II:1-II:C; linker I:N-II:N via Actinocin(9to1)) | 39 | 56 | 58 |  |  |  |  |
| COc1cccc2c1C(=O)c1c(O)c3c(c(O)c1C2=O)C[C@@](O)(C(C)=O)C[C@@H]3O[C@H]1C[C@H](N)[C@H](O)[C@H](C)O1 [Daunorubicin hydrochloride, reference compound] | -16 | 40 | 41 |  |  |  |  |
| CC[C@H](C)[C@H]1NC(=O)[C@@H](NC(=O)[C@@H](CC(C)C)N(C)C(=O)[C@@H]2CCCN2C(=O)C(C)O)[C@@H](C)OC(=O)[C@H](Cc2ccc(OC)cc2)N(C)C(=O)[C@@H]2CCCN2C(=O)[C@H](CC(C)C)NC(=O)[C@@H](C)C(=O)[C@H](C(C)C)OC(=O)C[C@@H]1O (some centres unmarked) [Didemnin B] |  | 100 | 100 | 8 | no syncytia was observed | could inhibit the VSVG infection; also recorded: rVSV-G-GFP inhibition | cellular toxicity (H2B mCherry nuclear condensation) [5]: exhibited toxicity at higher doses; toxicity at IC50 dose [5]: minimum toxicity; initiation of syncytia formation ([2]; listed as Didemin B): inhibits syncytia formation; IC50 [1, 6]: 190 nM; inhibitory activity after preincubation of cells with natural product (in words) [4]: having inhibitory activity; also recorded: could inhibit viral infection |
| CC[C@](C)(O)C(=O)O[C@H]1C(=O)O[C@@H]2C[C@H]3C(C)=C[C@H](O)[C@@H](O)[C@]3(C)[C@H]3[C@]4(O)OC[C@]32[C@@H]1[C@@H](C)[C@H]4O [Glaucarubin] | -7 | -1 | 33 |  |  |  |  |
| CC1=C2C(=CC(C)(C)[C@@H]2O)C(=O)[C@](C)(O)C12CC2 [Illudin M] | 31 | 54 | 73 |  |  |  |  |
| CC(=O)O[C@H]1C[C@H](O[C@H]2[C@@H](O)C[C@H](O[C@H]3[C@@H](O)C[C@H](OC4CC[C@@]5(C)[C@H](CC[C@@H]6[C@@H]5CC[C@]5(C)[C@@H](C7=CC(=O)OC7)CC[C@]65O)C4)O[C@@H]3C)O[C@@H]2C)O[C@H](C)[C@H]1O[C@@H]1O[C@H](CO)[C@@H](O)[C@H](O)[C@H]1O (some centres unmarked) [Lanatoside A] | 81 | 97 | 98 |  |  |  |  |
| CCCCCC1=C/C(=C/c2[nH]c(-c3ccc[nH]3)cc2OC)N=C1C [Prodigiosin] | 86 | 98 | 100 |  |  |  |  |
| C[C@@H]1O[C@@H](O[C@@H]2C=C3CC[C@@H]4[C@H](CC[C@]5(C)[C@@H](c6ccc(=O)oc6)CC[C@]45O)[C@@]3(C)CC2)[C@H](O)[C@H](O)[C@H]1O [Proscillaridin, reference compound] |  | 98 | 99 | 8 | 16 hpi | moderate inhibition | IC50 [1, 6]: 220 nM |
| C[C@@H]1O[C@@H](O[C@@H]2C=C3CC[C@@H]4[C@H](CC[C@]5(C)[C@@H](c6ccc(=O)oc6)CC[C@]45O)[C@@]3(C)CC2)[C@H](O)[C@H](O)[C@H]1O[C@@H]1O[C@H](CO)[C@@H](O)[C@H](O)[C@H]1O [Scillaren A] |  |  |  | 8 | 22 hpi | moderate level of inhibition | IC50 [1]: 410 nM |
| CSC[S@+]([O-])C[C@H](CO)NC(=O)/C=C/c1c(C)[nH]c(=O)[nH]c1=O [Sparsomycin] | -2 | 80 | 94 |  |  |  |  |
| COC1=C(N)C(=O)c2nc(-c3nc(C(=O)O)c(C)c(-c4ccc(OC)c(OC)c4O)c3N)ccc2C1=O [Streptonigrin] |  | 100 | 100 | 8 | 12 hpi | could inhibit the VSVG infection; also recorded: rVSV-G-GFP inhibition | toxicity at IC50 dose [5]: minimum toxicity; IC50 [1, 6]: 380 nM |
| CC[C@]1(O)C[C@H]2CN(CCc3c([nH]c4ccccc34)[C@@](C(=O)OC)(c3cc4c(cc3OC)N(C=O)[C@H]3[C@@](O)(C(=O)OC)[C@H](OC(C)=O)[C@]5(CC)C=CCN6CC[C@]43[C@@H]65)C2)C1 [Vincristine sulfate, reference compound] | 32 | 38 | 39 |  |  |  |  |
| Casirivimab |  |  |  |  |  |  | inhibition of VSV-eGFP-SARS-CoV-2 infection (in words) [1]: inhibition of VSV-eGFP-SARS-CoV-2 infection; IC50 [1]: 0.045 nM |
